Measured values: ChEMBL document CHEMBL1146526, “Two unusual acetogenins from the roots of Annona salzmanii” (J Nat Prod, 2003)
≈ marks a conversion by molar mass, not a printed value.

Columns and labels:
KB = experiment: Cytotoxicity against human KB cells; assay type: functional
[1] = Cytotoxicity against african green monkey Vero cells after 24 hrs; assay type: cell-based; conditions: chlorocebus sabaeus, read-out: ED50

Compound	ED50 (KB) [×10⁻⁴ ug/ml]	EC50 (KB; Homo sapiens, KB, read-out: ED50 (the source's name)) [µg/mL]	CC50 at 24 h [1] [µg/mL]
CCCCCCCCCC[C@@H](O)[C@@H](O)CC[C@H](O)[C@@H]1CC[C@@H]([C@@H](O)CCCCCCCCCCC(O)CC2=CC(C)(O)OC2=O)O1 (stereo not given in full) [PARISIN]	1	–	–
CCCCC[C@H](O)[C@@H](O)CCC[C@@H](O)[C@@H]1CC[C@@H](C2CC(O)[C@@H]([C@@H](O)CCCCCCCCCCCCC3=CC(C)OC3=O)O2)O1 (stereo not given in full) [SALZMANOLIN]	–	0.001 (≈ 0.00153 µM)	0.01 (≈ 0.0153 µM)
CC[C@]1(O)C[C@@H]2CN(CCc3c([nH]c4ccccc34)[C@@](C(=O)OC)(c3cc4c(cc3OC)N(C)[C@H]3[C@@](O)(C(=O)OC)[C@H](OC(C)=O)[C@]5(CC)C=CCN6CC[C@]43[C@@H]65)C2)C1 [VINBLASTINE]	0.1	–	> 0.1
